Laboratory results from PMC9043997, “LEAP2 reduces postprandial glucose excursions and ad libitum food intake in healthy men” (Cell Reports Medicine, 2022).
Where a SMILES comes first, the peptide text is derived from it. Bridges are numbered along the chain shown (N, C = ends).

Legend:
Type in all cases: in vivo, human
[1] = system: healthy men; assay: Plasma glucagon during LEAP2 infusion, crossover study; details: mean ± SEM
Description: (§1) The infusion was terminated when participants had finished eating.
(§2) For analysis of plasma glucose, blood was distributed in fluoride heparin-coated tubes, centrifuged immediately for 30 s (12,100 g, room temperature) and measured bedside by the glucose oxidase method (YSI 2900 Biochemistry Analyzer; YSI Incorporated, Yellow Springs, Ohio, USA). For analysis of LEAP2, blood was collected in chilled K3EDTA tubes each containing 250 KIU of aprotinin. For analysis of acyl ghrelin, blood was collected in chilled K2EDTA tubes added 20 μL pefabloc (100 mg/mL; Merck Millipore, Burlington, Massachusetts, USA). Subsequently, pefabloc-treated plasma was acidified with HCl (12.5 μL 2M HCl per 500 μL plasma; Merck Millipore, Burlington, Massachusetts, USA). For analysis of glucagon, blood was collected in K2EDTA tubes. For analysis of GH, insulin, C-peptide, free fatty acids, glycerol, triglycerides and acetaminophen (paracetamol), blood was collected in tubes with lithium and heparin. All tubes were immediately cooled on ice, centrifuged for 15 min (2,000 g, 4°C) and stored at −80°C until analysis. LEAP2 concentrations were determined by an in-house radioimmunoassay directed against the N-terminal part of LEAP2. LEAP-2 was used for standards, and the tracer was a peptide composed of the 12 N-terminal amino acids of LEAP2, with a ^125I-labelled tyrosine added to the C-terminal end. The precision and accuracy of the assay were evaluated based on European Medicines Agency's guidelines for bioanalytical assay validation. […] Due to supply chain disruptions from the COVID-19 pandemic, acyl ghrelin was only measured in plasma samples at timepoints 0, 60, 105, 165 and 255 min. […] Plasma GH was measured by Immunodiagnostic system-iSYS assay (IS-3700; IDS Limited, Boldon, UK). The assay is based on chemiluminesence technology and was performed according to the manufacturer’|'s instructions. […] For analysis of glucagon, plasma was extracted in a final concentration of 70% ethanol. Glucagon was measured using a C-terminal directed antiserum (code number 4305) measuring glucagon of pancreatic origin as previously described.[40] […] Plasma insulin and C-peptide were measured using a two-sided electrochemiluminescence immunoassay (Atellica IM Analyzer; Siemens Healthcare, Ballerup, Denmark). Plasma triglycerides and acetaminophen were analyzed by spectrophotometric methods following enzymatic hydrolysis and oxidation (Siemens Atellica CH 930; Siemens Healthcare, Ballerup, Denmark). Plasma concentrations of free fatty acids and glycerol were determined by enzymatic methods modified to run on a COBAS 6000 automatic analyzer (Roche, Rødovre, Denmark) using a NEFA-HR assay (Wako Chemicals, Neuss, Germany) and glycerol assay (Randox Laboratories, Crumlin, UK), respectively.
(§3) Unless otherwise stated, results are presented as mean ± SEM. Baseline values were calculated as a mean of timepoints −35, −10 and 0 min or, when only available −10 and 0 min. Baseline values for the postprandial period were calculated as a mean of timepoint 60 min. Calculations of AUC were based on the trapezoidal rule. AUC values are reported for the period 0 to 255 min. To assess the fasting and postprandial periods separately, AUC values are reported for the periods 0 to 60 min and 60 to 255 min, respectively. Student’s paired t test was used to test for differences in baseline, peak, time to peak, AUC and mean values and ad libitum food intake in men.

[2] = system: healthy men; assay: Plasma free fatty acids, glycerol and triglycerides during LEAP2 infusion, crossover study; details: mean ± SEM
Description: as §1, §2, §3

[3] = system: healthy men; assay: Plasma growth hormone during LEAP2 infusion, crossover study; details: mean ± SEM
Description: as §1, §2, §3

[4] = system: healthy men; assay: Plasma acetaminophen as indirect marker of gastric emptying, crossover study; details: healthy men n = 20, iv LEAP2 ~25 pmol/kg/min
Description: as §1
For analysis of plasma glucose, blood was distributed in fluoride heparin-coated tubes, centrifuged immediately for 30 s (12,100 g, room temperature) and measured bedside by the glucose oxidase method (YSI 2900 Biochemistry Analyzer; YSI Incorporated, Yellow Springs, Ohio, USA). For analysis of LEAP2, blood was collected in chilled K3EDTA tubes each containing 250 KIU of aprotinin. For analysis of acyl ghrelin, blood was collected in chilled K2EDTA tubes added 20 μL pefabloc (100 mg/mL; Merck Millipore, Burlington, Massachusetts, USA). Subsequently, pefabloc-treated plasma was acidified with HCl (12.5 μL 2M HCl per 500 μL plasma; Merck Millipore, Burlington, Massachusetts, USA). For analysis of glucagon, blood was collected in K2EDTA tubes. For analysis of GH, insulin, C-peptide, free fatty acids, glycerol, triglycerides and acetaminophen (paracetamol), blood was collected in tubes with lithium and heparin. All tubes were immediately cooled on ice, centrifuged for 15 min (2,000 g, 4°C) and stored at −80°C until analysis. LEAP2 concentrations were determined by an in-house radioimmunoassay directed against the N-terminal part of LEAP2. […] The precision and accuracy of the assay were evaluated based on European Medicines Agency's guidelines for bioanalytical assay validation. […] Due to supply chain disruptions from the COVID-19 pandemic, acyl ghrelin was only measured in plasma samples at timepoints 0, 60, 105, 165 and 255 min. […] Plasma GH was measured by Immunodiagnostic system-iSYS assay (IS-3700; IDS Limited, Boldon, UK). […] Glucagon was measured using a C-terminal directed antiserum (code number 4305) measuring glucagon of pancreatic origin as previously described.[40] […] Plasma insulin and C-peptide were measured using a two-sided electrochemiluminescence immunoassay (Atellica IM Analyzer; Siemens Healthcare, Ballerup, Denmark). Plasma triglycerides and acetaminophen were analyzed by spectrophotometric methods following enzymatic hydrolysis and oxidation (Siemens Atellica CH 930; Siemens Healthcare, Ballerup, Denmark). […]

[5] = system: healthy men; assay: Plasma glucose and VAS ratings during the pharmacokinetic study
Experimental: Eight healthy men, recruited among participants in the placebo-controlled, crossover study, were included in an additional clinical study investigating the kinetic parameters of exogenous LEAP2. Each participant underwent a single experimental day with intravenous infusion of LEAP2 (10 min at a rate of ∼101 pmol/kg/min followed by 110 min at ∼25 pmol/kg/min) (see Figure S1B for an overview of the clinical study design). […] Fasting schedule for participants and all instructions from 48 h prior to the experimental day were similar to the placebo-controlled, crossover study. […] LEAP2 infusion was started at timepoint 0 min and discontinued after 120 min. Blood samples were drawn every 15 min from timepoint −30 to 270 min and, additionally, at timepoints 118, 122, 124, 127 and 130 min. Plasma glucose was measured bedside every 15 min from timepoint −30 to 180 min and every 30 min from timepoint 180 to 270 min with a mean concentration of 4.85 ± 0.02 mmol/L. For analytical procedures related to plasma glucose and LEAP2 concentrations, please see the section “Human plasma analyses”. Every 30 min from time −30 to 270 min, participants rated appetite-related sensations on 100 mm VAS[34] with a score (median (interquartile range)) for hunger of 72 (59–79) mm, prospective food consumption 73 (65–82) mm, satiety 22 (14–33) mm, fullness 21 (12–31) mm, comfort 78 (72–90) mm, thirst 78 (71–89) mm and nausea 3.0 (0–9.0).

[6] = healthy men n = 20, LEAP2 day, before infusion
[7] = healthy men n = 20, iv LEAP2 ~25 pmol/kg/min, 0 to 255 min
[8] = healthy men n = 20, iv LEAP2 ~25 pmol/kg/min, fasting period
[9] = healthy men n = 20, iv LEAP2 ~25 pmol/kg/min, liquid mixed meal at 65 min
[10] = healthy men n = 20, iv LEAP2 ~25 pmol/kg/min, postprandial period
[11] = healthy men n = 20, iv LEAP2 ~25 pmol/kg/min, time = 60 min
[12] = 1.5 g acetaminophen in liquid mixed meal at 65 min, marker of gastric emptying, mean ± SEM
[13] = healthy fasting men n = 8, -30 to 270 min, median (interquartile range)

With `CC[C@H](C)[C@@H]1NC(=O)[C@@H]2CSSC[C@@H](C(=O)N[C@@H](CO)C(=O)N[C@@H](CC(C)C)C(=O)N[C@@H](CO)C(=O)N[C@H](C(=O)N[C@@H](C)C(=O)N[C@@H](CCC(N)=O)C(=O)N[C@@H](CCC(=O)O)C(=O)O)C(C)C)NC(=O)[C@H](CCCNC(=N)N)NC(=O)[C@H](CCCNC(=N)N)NC(=O)[C@H](CCCCN)NC(=O)[C@H](CCCNC(=N)N)NC(=O)[C@H](CSSC[C@H](NC(=O)[C@H](CO)NC(=O)[C@H](C)NC(=O)CNC(=O)[C@@H](NC(=O)[C@@H]3CCCN3C(=O)[C@H](CCCNC(=N)N)NC(=O)[C@H](CC(C)C)NC(=O)[C@H](CO)NC(=O)[C@@H](NC(=O)CNC(=O)[C@H](CCCNC(=N)N)NC(=O)[C@H](Cc3c[nH]c4ccccc34)NC(=O)[C@H](Cc3ccccc3)NC(=O)[C@@H]3CCCN3C(=O)[C@@H](NC(=O)[C@@H](N)CCSC)[C@@H](C)O)C(C)C)[C@@H](C)CC)C(=O)N[C@@H](CCCNC(=N)N)C(=O)N[C@@H](CC(=O)O)C(=O)N[C@@H](CC(=O)O)C(=O)N[C@@H](CO)C(=O)N[C@@H](CCC(=O)O)C(=O)N2)NC(=O)[C@H](CC(C)C)NC(=O)[C@H](CCCNC(=N)N)NC(=O)[C@H]([C@@H](C)O)NC1=O` [LEAP2, liver-expressed antimicrobial peptide 2] (H-MTPFWRGVSLRPIGASCRDDSECITRLCRKRRCSLSVAQE-OH; disulfide 17-28, 23-33 (inferred); N-terminus and C-terminus assumed) the “Glucagon Baseline” value [1, 6] was 6.57 ± 0.76 pmol/L, the “Glucagon AUC” value [1, 7] was 2.26 ± 0.20 nmol·min/L and the “Glucagon AUC0–60 min” value [1, 8] was 0.446 ± 0.044 nmol·min/L. For the same compound, the “Glucagon Peak” value [1, 9] was 13.0 ± 0.94 pmol/L, the “Glucagon Time to peak” value [1, 9] was 116 ± 12.5 min and the “Glucagon AUC60–255 min” value [1, 10] was 1.82 ± 0.17 nmol·min/L. The “Glucagon Postprandial baseline” value [1, 11] was 7.35 ± 0.82 pmol/L, the “Free fatty acids Baseline” value [2, 6] was 339 ± 18.4 µmol/L and the “Glycerol Baseline” value [2, 6] was 26.6 ± 2.45 µmol/L. The “Triglycerides Baseline” value [2, 6] was 920 ± 62.2 µmol/L, the “Free fatty acids AUC” value [2, 7] was 43.2 ± 2.49 mmol·min/L and the “Glycerol AUC” value [2, 7] was 4.87 ± 0.57 mmol·min/L. The “Triglycerides AUC” value [2, 7] was 263 ± 16.7 mmol·min/L, the “Free fatty acids AUC0–60 min” value [2, 8] was 18.9 ± 1.18 mmol·min/L and the “Glycerol AUC0–60 min” value [2, 8] was 1.65 ± 0.15 mmol·min/L. For the same compound, the “Triglycerides AUC0–60 min” value [2, 8] was 53.5 ± 3.14 mmol·min/L, the “Free fatty acids Nadir” value [2, 9] was 58.4 ± 3.94 µmol/L and the “Free fatty acids Time to nadir” value [2, 9] was 155 ± 7.63 min. For the same compound, the “Glycerol Nadir” value [2, 9] was 11.7 ± 2.12 µmol/L, the “Glycerol Time to nadir” value [2, 9] was 144 ± 10.2 min and the “Triglycerides Peak” value [2, 9] was 1,275 ± 84.8 μmol/L. The “Triglycerides Time to peak” value [2, 9] was 195 ± 5.33 min, the “Free fatty acids AUC60–255 min” value [2, 10] was 24.4 ± 1.51 mmol·min/L and the “Glycerol AUC60–255 min” value [2, 10] was 3.22 ± 0.44 mmol·min/L. For the same compound, the “Triglycerides AUC60–255 min” value [2, 10] was 210 ± 13.8 mmol·min/L, the “Free fatty acids Postprandial baseline” value [2, 11] was 272 ± 16.4 µmol/L and the “Glycerol Postprandial baseline” value [2, 11] was 22.9 ± 2.12 µmol/L. The “Triglycerides Postprandial baseline” value [2, 11] was 847 ± 48.3 µmol/L, the “Growth hormone Baseline” value [3, 6] was 0.594 ± 0.300 ng/mL and the “Growth hormone AUC” value [3, 7] was 33.8 ± 11.8 ng·min/mL. For the same compound, the “Growth hormone AUC0–60 min” value [3, 8] was 20.2 ± 9.76 ng·min/mL, the “Growth hormone Nadir” value [3, 9] was 0.042 ± 0.004 ng/mL and the “Growth hormone Time to nadir” value [3, 9] was 116 ± 17.2 min. The “Growth hormone AUC60–255 min” value [3, 10] was 13.6 ± 2.32 ng·min/mL, the “Growth hormone Postprandial baseline” value [3, 11] was 0.121 ± 0.048 ng/mL and the “Acetaminophen Peak” value [4, 12] was 65.1 ± 2.52 µmol/L. The “Acetaminophen Time to peak” value [4, 12] was 209 ± 6.34 min, the “gastric emptying rate of a liquid mixed meal” value ([4]; by plasma acetaminophen, vs placebo) was “does not alter gastric emptying rate” and the “plasma glucose mean concentration during the pharmacokinetic study” value ([5]; healthy fasting men n = 8, -30 to 270 min, LEAP2 infusion 0 to 120 min) was 4.85 ± 0.02 mmol/L. The VAS comfort [5, 13] was 78 (72–90) mm, the VAS fullness [5, 13] was 21 (12–31) mm and the “VAS prospective food consumption” value [5, 13] was 73 (65–82) mm. The VAS satiety [5, 13] was 22 (14–33) mm, the VAS thirst [5, 13] was 78 (71–89) mm and the VAS hunger ([5]; healthy fasting men n = 8, every 30 min from -30 to 270 min, LEAP2 infusion 0 to 120 min, median (interquartile range)) was 72 (59–79) mm.
